Measurements: article PMC10866072, “Design, synthesis, molecular modelling and biological evaluation of novel 6-amino-5-cyano-2-thiopyrimidine derivatives as potent anticancer agents against leukemia and apoptotic inducers” (Journal of Enzyme Inhibition and Medicinal Chemistry, 2024)

Tests used:
[1] = test system: CCRF-CEM; assay type: cell-based; settings: Homo sapiens, one dose 10^-5 M, 48 h
[2] = test system: HL-60(TB); assay type: cell-based; settings: Homo sapiens, one dose 10^-5 M, 48 h
[3] = test system: K-562; assay type: cell-based; settings: Homo sapiens, K562, one dose 10^-5 M, 48 h
[4] = test system: MOLT-4; assay type: cell-based; settings: Homo sapiens, one dose 10^-5 M, 48 h, read-out: % growth
[5] = test system: RPMI-8226; assay type: cell-based; settings: Homo sapiens, one dose 10^-5 M, 48 h
[6] = test system: SR; assay type: cell-based; settings: Homo sapiens, one dose 10^-5 M, 48 h
[7] = test system: A549/ATCC; assay type: cell-based; settings: Homo sapiens, one dose 10^-5 M, 48 h
[8] = test system: EKVX; assay type: cell-based; settings: Homo sapiens, one dose 10^-5 M, 48 h
[9] = test system: HOP-62; assay type: cell-based; settings: Homo sapiens, one dose 10^-5 M, 48 h
[10] = test system: HOP-92; assay type: cell-based; settings: Homo sapiens, one dose 10^-5 M, 48 h
[11] = test system: NCI-H226; assay type: cell-based; settings: Homo sapiens, one dose 10^-5 M, 48 h
[12] = test system: NCI-H23; assay type: cell-based; settings: Homo sapiens, one dose 10^-5 M, 48 h, read-out: % growth
[13] = test system: NCI-H460; assay type: cell-based; settings: Homo sapiens, one dose 10^-5 M, 48 h, read-out: % growth
[14] = test system: NCI-H522; assay type: cell-based; settings: Homo sapiens, one dose 10^-5 M, 48 h
[15] = test system: HCC-2998; assay type: cell-based; settings: Homo sapiens, one dose 10^-5 M, 48 h
[16] = test system: HCT-116; assay type: cell-based; settings: Homo sapiens, one dose 10^-5 M, 48 h, read-out: % growth
[17] = test system: HCT-15; assay type: cell-based; settings: Homo sapiens, one dose 10^-5 M, 48 h, read-out: % growth
[18] = test system: HT29; assay type: cell-based; settings: Homo sapiens, HT-29, one dose 10^-5 M, 48 h
[19] = test system: KM12; assay type: cell-based; settings: Homo sapiens, one dose 10^-5 M, 48 h
[20] = test system: SW-620; assay type: cell-based; settings: Homo sapiens, one dose 10^-5 M, 48 h
[21] = test system: SF-268; assay type: cell-based; settings: Homo sapiens, one dose 10^-5 M, 48 h, read-out: % growth
[22] = test system: SF-295; assay type: cell-based; settings: Homo sapiens, one dose 10^-5 M, 48 h
[23] = test system: SF-539; assay type: cell-based; settings: Homo sapiens, one dose 10^-5 M, 48 h
[24] = test system: SNB-19; assay type: cell-based; settings: Homo sapiens, one dose 10^-5 M, 48 h, read-out: % growth
[25] = test system: SNB-75; assay type: cell-based; settings: Homo sapiens, one dose 10^-5 M, 48 h
[26] = test system: U251; assay type: cell-based; settings: Homo sapiens, U-251, one dose 10^-5 M, 48 h
[27] = test system: LOX IMVI; assay type: cell-based; settings: Homo sapiens, one dose 10^-5 M, 48 h, read-out: % growth
[28] = test system: MALME-3M; assay type: cell-based; settings: Homo sapiens, one dose 10^-5 M, 48 h
[29] = test system: M14; assay type: cell-based; settings: Homo sapiens, one dose 10^-5 M, 48 h
[30] = test system: MDA-MB-435; assay type: cell-based; settings: Homo sapiens, one dose 10^-5 M, 48 h, read-out: % growth
[31] = test system: SK-MEL-2; assay type: cell-based; settings: Homo sapiens, one dose 10^-5 M, 48 h
[32] = test system: SK-MEL-28; assay type: cell-based; settings: Homo sapiens, one dose 10^-5 M, 48 h
[33] = test system: SK-MEL-5; assay type: cell-based; settings: Homo sapiens, one dose 10^-5 M, 48 h, read-out: % growth
[34] = test system: UACC-257; assay type: cell-based; settings: Homo sapiens, one dose 10^-5 M, 48 h
[35] = test system: UACC-62; assay type: cell-based; settings: Homo sapiens, one dose 10^-5 M, 48 h
[36] = test system: IGROV1; assay type: cell-based; settings: Homo sapiens, IGROV-1, one dose 10^-5 M, 48 h, read-out: % growth
[37] = test system: OVCAR-3; assay type: cell-based; settings: Homo sapiens, one dose 10^-5 M, 48 h
[38] = test system: OVCAR-4; assay type: cell-based; settings: Homo sapiens, one dose 10^-5 M, 48 h
[39] = test system: OVCAR-5; assay type: cell-based; settings: Homo sapiens, one dose 10^-5 M, 48 h
[40] = test system: OVCAR-8; assay type: cell-based; settings: Homo sapiens, one dose 10^-5 M, 48 h
[41] = test system: SK-OV-3; assay type: cell-based; settings: Homo sapiens, one dose 10^-5 M, 48 h
[42] = test system: 786-0; assay type: cell-based; settings: Homo sapiens, one dose 10^-5 M, 48 h
[43] = test system: A498; assay type: cell-based; settings: Homo sapiens, one dose 10^-5 M, 48 h
[44] = test system: ACHN; assay type: cell-based; settings: Homo sapiens, one dose 10^-5 M, 48 h
[45] = test system: CAKI-1; assay type: cell-based; settings: Homo sapiens, CAKI-1, 48 h, one dose 10^-5 M, 48 h
[46] = test system: RXF 393; assay type: cell-based; settings: Homo sapiens, RXF 393, 48 h, one dose 10^-5 M, 48 h, read-out: % growth
[47] = test system: SN12C; assay type: cell-based, human; settings: Homo sapiens, one dose 10^-5 M, 48 h
[48] = test system: TK-10; assay type: cell-based; settings: Homo sapiens, one dose 10^-5 M, 48 h
[49] = test system: UO-31; assay type: cell-based; settings: Homo sapiens, UO-31, 48 h, one dose 10^-5 M, 48 h
[50] = test system: PC-3; assay type: cell-based; settings: Homo sapiens, one dose 10^-5 M, 48 h
[51] = test system: DU-145; assay type: cell-based; settings: Homo sapiens, one dose 10^-5 M, 48 h
[52] = test system: MCF7; assay type: cell-based; settings: Homo sapiens, one dose 10^-5 M, 48 h, read-out: % growth
[53] = test system: MDA-MB-231/ATCC; assay type: cell-based; settings: one dose 10^-5 M, 48 h
[54] = test system: HS 578T; assay type: cell-based; settings: Homo sapiens; one dose 10^-5 M, 48 h; HS 578T; read-out: % growth
[55] = test system: T-47D; assay type: cell-based; settings: Homo sapiens, T47D, one dose 10^-5 M, 48 h, read-out: % growth
[56] = test system: MDA-MB-468; assay type: cell-based; settings: Homo sapiens, one dose 10^-5 M, 48 h
[57] = test system: full NCI 60 cell lines panel; settings: Homo sapiens, 60 cell, 48 h, read-out: Mean % growth

## N=C(NN=Cc1ccc(Br)cc1)c1c(N)nc(S)nc1-c1ccc(Cl)cc1 [Compound 4k, 4-amino-N'-[(4-bromophenyl)methylene]-6–(4-chlorophenyl)-2-mercapto pyrimidine-5-carboximidohydrazide]
[1]
  % cell growth at 10 µM: 43.4%
[2]
  % growth at 10 µM: 119%
[3]
  % growth at 10 µM: 67.8%
[4]
  activity at 10 µM: 54.6%
[5]
  % growth at 10 µM: 56.8%
[6]
  percent cell growth at 10 µM: 62.4%
[7]
  % growth at 10 µM: 55.3%
[8]
  % cell growth at 10 µM: 66.3%
[9]
  % growth at 10 µM: 98%
[10]
  % growth at 10 µM: 19%
[11]
  % growth at 10 µM: 98%
[12]
  activity at 10 µM: 71.8%
[13]
  activity at 10 µM: 73.4%
[14]
  % growth at 10 µM: 73.5%
[15]
  % growth at 10 µM: 111%
[16]
  activity at 10 µM: 69.6%
[17]
  activity at 10 µM: 73.4%
[18]
  % growth at 10 µM: 102%
[19]
  % growth at 10 µM: 76.2%
[20]
  % growth at 10 µM: 95.6%
[21]
  activity at 10 µM: 90.2%
[22]
  % cell growth at 10 µM: 91.2%
[23]
  % growth at 10 µM: 71.2%
[24]
  activity at 10 µM: 80.4%
[25]
  % growth at 10 µM: 35.5%
[26]
  % growth at 10 µM: 77.1%
[27]
  activity at 10 µM: 92.3%
[28]
  % growth at 10 µM: 119%
[29]
  % growth at 10 µM: 76.5%
[30]
  activity at 10 µM: 87.8%
[31]
  % growth at 10 µM: 96%
[32]
  % cell growth at 10 µM: 105%
[33]
  activity at 10 µM: 93.3%
[34]
  percent cell growth at 10 µM: 81.4%
[35]
  % growth at 10 µM: 82.4%
[36]
  activity at 10 µM: 68.2%
[37]
  % growth at 10 µM: 101%
[38]
  % growth at 10 µM: 76.7%
[39]
  percent cell growth at 10 µM: 97%
[40]
  % growth of cells at 10 µM: 63.7%
[41]
  % growth at 10 µM: 78.7%
[42]
  % growth at 10 µM: 89.9%
[43]
  % growth at 10 µM: 88.4%
[44]
  % growth at 10 µM: 77.3%
[45]
  % growth at 10 µM: 62.4%
[46]
  activity at 10 µM: 82.5%
[47]
  % growth at 10 µM: 87.7%
[48]
  % cell growth at 10 µM: 116%
[49]
  % cell growth at 10 µM: 47.8%
[50]
  percent cell growth at 10 µM: 70.5%
[51]
  % growth at 10 µM: 83.9%
[52]
  activity at 10 µM: 57.5%
[53]; Homo sapiens
  % growth at 10 µM: -1.21%
[53]
  % growth: -1.21%
[54]
  activity at 10 µM: 42.6%
[55]
  activity at 10 µM: 54.8%
[56]
  percent cell growth at 10 µM: 84.6%
[57]
  activity at 10 µM: 76.8%
